Experimental data taken from patent US9409915B2, “Substituted aza-bicyclic imidazole derivatives useful as TRPM8 receptor modulators” (Janssen Pharmaceutica NV, priority 2010, dated 2016).
Where a name gives a salt, the structure may show the parent alone.

Experiments:
canine TRPM8 = canine TRPM8 (Canis lupus familiaris, UniProt Q1A7N1); assay: In vitro canine TRPM8 functional assay (Ca2+-sensitive fluorescent dye, icilin activation); type: cell-based; conditions: HEK293 cells stably expressing canine TRPM8, icilin-induced Ca2+ response; for IC50: eight-point concentration-response
Sequence of canine TRPM8 (Q1A7N1 1-1104): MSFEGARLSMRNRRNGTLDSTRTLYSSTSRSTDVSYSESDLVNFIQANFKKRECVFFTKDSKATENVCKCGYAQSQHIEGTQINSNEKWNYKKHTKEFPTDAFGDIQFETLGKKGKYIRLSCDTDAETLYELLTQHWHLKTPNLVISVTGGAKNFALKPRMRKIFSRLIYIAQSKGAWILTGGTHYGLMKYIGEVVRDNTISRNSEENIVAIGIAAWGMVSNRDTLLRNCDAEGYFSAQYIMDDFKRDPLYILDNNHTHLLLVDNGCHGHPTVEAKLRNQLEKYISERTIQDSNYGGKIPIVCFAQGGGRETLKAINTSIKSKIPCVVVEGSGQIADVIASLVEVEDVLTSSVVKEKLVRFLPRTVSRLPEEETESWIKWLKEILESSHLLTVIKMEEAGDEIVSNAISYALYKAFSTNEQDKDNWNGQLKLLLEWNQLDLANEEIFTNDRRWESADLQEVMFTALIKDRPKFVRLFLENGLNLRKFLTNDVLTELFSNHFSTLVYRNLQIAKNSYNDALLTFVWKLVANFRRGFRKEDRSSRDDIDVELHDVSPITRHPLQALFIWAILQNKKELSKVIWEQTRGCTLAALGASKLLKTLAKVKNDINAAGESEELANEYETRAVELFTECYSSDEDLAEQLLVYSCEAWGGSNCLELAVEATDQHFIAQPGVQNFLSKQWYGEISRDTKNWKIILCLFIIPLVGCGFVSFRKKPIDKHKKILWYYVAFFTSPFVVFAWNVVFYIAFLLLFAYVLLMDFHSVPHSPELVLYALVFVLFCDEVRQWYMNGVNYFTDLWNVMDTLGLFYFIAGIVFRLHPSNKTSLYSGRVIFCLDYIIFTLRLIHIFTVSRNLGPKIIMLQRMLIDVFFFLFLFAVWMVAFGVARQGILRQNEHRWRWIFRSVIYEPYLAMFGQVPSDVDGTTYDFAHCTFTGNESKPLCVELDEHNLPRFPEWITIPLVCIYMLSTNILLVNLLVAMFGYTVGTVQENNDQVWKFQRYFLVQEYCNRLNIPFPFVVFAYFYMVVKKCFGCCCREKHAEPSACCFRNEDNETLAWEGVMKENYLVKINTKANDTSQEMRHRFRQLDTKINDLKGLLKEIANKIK

Male Sprague Dawley rats = assay: Inhibition of icilin-induced "wet-dog" shakes in rats; type: in vivo; conditions: 10 mg/kg p.o. in 10% HP-β-CD, 60 min before icilin 3.0 mg/kg i.p.; rat wet-dog shakes
Experimental: Male Sprague Dawley rats (220-450 g, Charles River Labs, n=6-9/treatment) were used to evaluate the ability of test compounds to block icilin-induced “wet-dog” shakes (WDS). The test compound was administered in 10% hydroxypropyl-β-cyclodextrin (HP-β-CD), p.o., 60 min before icilin. Icilin was then administered in 10% solutol/H2O, at 3.0 mg/kg, i.p., and spontaneous “wet-dog” shakes were counted 10 min following the icilin injection over a 10-min period.

Structure (SMILES)	inhibition at 0.2 µM (canine TRPM8; 0.2 μM compound) [%]	IC50 (canine TRPM8) [nM]	Icilin % Inhibition @ 1.5 h, 10 mg/kg (Male Sprague Dawley rats) [%]	% Inh @ 0.2 μM (canine TRPM8; 0.2 μM compound) [%]
COc1nc(-c2ccccc2Cl)cc2nc(-c3c(C#N)c(C(C)(C)C)nn3C)[nH]c12.CS(=O)(=O)O [Compound 17, 3-tert-Butyl-5-[6-(2-chloro-phenyl)-4-methoxy-3H-imidazo[4,5-c]pyridine-2-yl]-1-methyl-1H-pyrazole-4-carbonitrile methanesulfonic acid salt]	99	1.7	38	
COc1nc(-c2ccccc2Cl)cc2nc(-c3csc(C(C)C)c3)[nH]c12 [Compound 98, 6-(2-Chloro-phenyl)-2-(5-isopropyl-thiophen-3-yl)-4-methoxy-3H-imidazo[4,5-c]pyridine]	100	14		
COc1nc(-c2ccccc2Cl)cc2nc(-c3cnn(C(C)(C)C)c3C)[nH]c12 [Compound 100, 2-(1-tert-Butyl-5-methyl-1H-pyrazol-4-yl)-6-(2-chloro-phenyl)-4-methoxy-3H-imidazo[4,5-c]pyridine sodium salt]	94	61.3		
COc1nc(-c2ccccc2Cl)cc2nc(-c3cnn(C(C)(C)C)c3)[nH]c12 [Compound 102, 2-(1-tert-Butyl-1H-pyrazol-4-yl)-6-(2-chloro-phenyl)-4-methoxy-3H-imidazo[4,5-c]pyridine sodium salt]	70	120		
Cn1nc(C(C)(C)C)c(Cl)c1-c1nc2nc(-c3ccccc3Cl)cnc2[nH]1 [Compound 110]		24		99
COc1nc(-c2ccccc2Cl)cc2nc(-c3nc(C(C)(C)C)cn3C)[nH]c12 [Compound 111, 2-(4-tert-Butyl-1-methyl-1H-imidazol-2-yl)-6-(2-chloro-phenyl)-4-methoxy-3H-imidazo[4,5-c]pyridine]	62			
COCCOc1cc(-c2ccccc2C(F)(F)F)nc2nc(-c3cc(C(C)(C)C)nn3C)[nH]c12 [Compound 112, 2-(5-tert-Butyl-2-methyl-2H-pyrazol-3-yl)-7-(2-methoxy-ethoxy)-5-(2-trifluoromethyl-phenyl)-1H-imidazo[4,5-b]pyridine methanesulfonic acid salt]	98	19		
Cn1nc(C(C)(C)C)c(Cl)c1-c1nc2nc(-c3ccccc3C(F)(F)F)cc(Cl)c2[nH]1 [compound 5, hydrochloride]	99			
Cn1nc(C(C)(C)C)c(Cl)c1-c1nc2cc(-c3ccccc3C(F)(F)F)nc(C#N)c2[nH]1 [compound 60, 2-(5-tert-butyl-4-chloro-2-methyl-2H-pyrazol-3-yl)-6-(2-trifluoromethyl-phenyl)-3H-imidazo[4,5-c]pyridine-4-carbonitrile benzenesulfonic acid salt]	99			
